Source: ChEMBL document CHEMBL6177960, “Rational design, optimization, and biological evaluation of novel pyrrolo-pyridone derivatives as potent and orally active Cbl-b inhibitors” (Eur J Med Chem, 2025)

Key:
in vitro [1] = settings: dog, hepatocytes
[2] = Plasma protein binding in human at 5 uM incubated for 5 hrs by equilibrium dialysis based LC-MS analysis
in vivo [3] = settings: male, CD-1(ICR), mouse, po, 10 mg/kg
[4] = Plasma protein binding in Beagle dog at 5 uM incubated for 5 hrs by equilibrium dialysis based LC-MS analysis
[5] = Metabolic stability in rat hepatocytes assessed as hepatic extraction ratio at 2 uM measured up to 120 mins by LC-MS/MS analysis
in vivo [6] = settings: male, CD-1(ICR), mouse, iv, 1 mg/kg
Description: Clearance in male CD-1(ICR) mouse at 1 mg/kg, iv measured after 1440 mins by LC-MS/MS analysis

in vivo [7] = settings: male, CD-1(ICR), mouse, po, 10 mg/kg; remark: listed apart in the source
[8] = mouse, in vivo, po, 10 mg/kg, 24 h
[9] = Plasma protein binding in CD-1 mouse at 5 uM incubated for 5 hrs by equilibrium dialysis based LC-MS analysis
[10] = human, hepatocytes, 2 h, 2 µM
[11] = Protein binding in Sprague-Dawley rat plasma assessed as unbound fraction at 5 uM incubated for 5 hrs by equilibrium dialysis based LC-MS analysis
[12] = Apparent permeability across basolateral to apical side in human Caco-2 cells at 2 uM incubated for 2 hrs by LC-MS/MS analysis
[13] = Inhibition of immunosuppressive activity in PGE2-induced human T cells assessed as increase in IL2 production preincubated with PGE2 for 15 mins followed by compound administration for 60 mins and measured after 48 hrs of anti-human CD28 antibody by ELISA; settings: T-cell
[14] = Metabolic stability in human hepatocytes assessed as hepatic extraction ratio at 2 uM measured up to 120 mins by LC-MS/MS analysis
[15] = Apparent permeability across apical to basolateral side in human Caco-2 cells at 2 uM incubated for 2 hrs by LC-MS/MS analysis
[16] = rat, hepatocytes, 2 h, 2 µM
[17] = rhesus monkey, hepatocytes, 2 h, 2 µM
in vitro [18] = settings: rat, hepatocytes
in vitro [19] = settings: human, hepatocytes
[20] = Protein binding in cynomolgus monkey plasma assessed as unbound fraction at 5 uM incubated for 5 hrs by equilibrium dialysis based LC-MS analysis
[21] = Plasma protein binding in Sprague-Dawley rat at 5 uM incubated for 5 hrs by equilibrium dialysis based LC-MS analysis
in vivo [22] = settings: male, CD-1(ICR), mouse, iv, 1 mg/kg; remark: listed apart in the source
Description: AUCinfinity in male CD-1(ICR) mouse at 1 mg/kg, iv measured after 1440 mins by LC-MS/MS analysis

[23] = Metabolic stability in mouse hepatocytes assessed as hepatic extraction ratio at 2 uM measured up to 120 mins by LC-MS/MS analysis
[24] = Protein binding in human plasma assessed as unbound fraction at 5 uM incubated for 5 hrs by equilibrium dialysis based LC-MS analysis
in vitro [25] = settings: dog, hepatocytes; remark: listed apart in the source
[26] = Protein binding in Beagle dog plasma assessed as unbound fraction at 5 uM incubated for 5 hrs by equilibrium dialysis based LC-MS analysis
in vivo [27] = settings: male, CD-1(ICR), mouse, iv, 1 mg/kg; remark: listed apart in the source
Description: C0 in male CD-1(ICR) mouse at 1 mg/kg, iv measured after 1440 mins by LC-MS/MS analysis

in vivo [28] = settings: male, CD-1(ICR), mouse, iv, 1 mg/kg; remark: listed apart in the source
Description: AUClast in male CD-1(ICR) mouse at 1 mg/kg, iv measured after 1440 mins by LC-MS/MS analysis

in vivo [29] = settings: male, CD-1(ICR), mouse, iv, 1 mg/kg; remark: listed apart in the source
Description: MRTinfinity in male CD-1(ICR) mouse at 1 mg/kg, iv measured after 1440 mins by LC-MS/MS analysis

[30] = Plasma protein binding in cynomolgus monkey at 5 uM incubated for 5 hrs by equilibrium dialysis based LC-MS analysis
in vivo [31] = settings: male, CD-1(ICR), mouse, po, 10 mg/kg; remark: listed apart in the source
in vivo [32] = settings: male, CD-1(ICR), mouse, po, 10 mg/kg; remark: listed apart in the source
Description: MRTinfinity in male CD-1(ICR) mouse at 10 mg/kg, po measured after 1440 mins by LC-MS/MS analysis

[33] = mouse, in vivo, iv, 1 mg/kg, 24 h
[34] = Inhibition of immunosuppressive activity in PGE2-induced human T cells assessed as increase in IFNgamma production preincubated with PGE2 for 15 mins followed by compound administration for 60 mins and measured after 48 hrs of anti-human CD28 antibody by ELISA; settings: T-cell
in vivo [35] = settings: male, CD-1(ICR), mouse, iv, 1 mg/kg; remark: listed apart in the source
Description: Volume of distribution at steady state in male CD-1(ICR) mouse at 1 mg/kg, iv measured after 1440 mins by LC-MS/MS analysis

[36] = Protein binding in CD-1 mouse plasma assessed as unbound fraction at 5 uM incubated for 5 hrs by equilibrium dialysis based LC-MS analysis
in vivo [37] = settings: male, CD-1(ICR), mouse, po, 10 mg/kg; remark: listed apart in the source
Description: AUClast in male CD-1(ICR) mouse at 10 mg/kg, po measured after 1440 mins by LC-MS/MS analysis

[38] = mouse, hepatocytes, 2 h, 2 µM
in vitro [39] = settings: human, Caco-2
in vivo [40] = settings: male, CD-1(ICR), mouse, iv, 1 mg/kg; remark: listed apart in the source
Description: Half-life in male CD-1(ICR) mouse at 1 mg/kg, iv measured after 1440 mins by LC-MS/MS analysis

[41] = target: E3 ubiquitin-protein ligase CBL-B (Homo sapiens, UniProt Q13191); test: Binding affinity to Cbl-b (unknown origin) assessed as inhibition constant incubated for 60 mins by TR-FRET assay
in vitro [42] = settings: rhesus monkey, hepatocytes
in vitro [43] = settings: mouse, hepatocytes
in vivo [44] = settings: male, CD-1(ICR), mouse, po, 10 mg/kg; remark: listed apart in the source
Description: Half-life in male CD-1(ICR) mouse at 10 mg/kg, po measured after 1440 mins by LC-MS/MS analysis

[45] = Apparent permeability across apical to basolateral side in human Caco-2 cells assessed as drug recovery at 2 uM incubated for 2 hrs by LC-MS/MS analysis
[46] = Metabolic stability in monkey hepatocytes assessed as hepatic extraction ratio at 2 uM measured up to 120 mins by LC-MS/MS analysis; settings: rhesus monkey
in vivo [47] = settings: male, CD-1(ICR), mouse, po, 10 mg/kg; remark: listed apart in the source
Description: AUCinfinity in male CD-1(ICR) mouse at 10 mg/kg, po measured after 1440 mins by LC-MS/MS analysis

[48] = Inhibition of immunosuppressive activity in PGE2-induced human T cells assessed as increase in cell proliferation preincubated with PGE2 for 15 mins followed by compound administration for 60 mins and measured after 72 hrs of anti-human CD28 antibody by flow cytometric analysis
[49] = Apparent permeability across basolateral to apical side in human Caco-2 cells assessed as drug recovery at 2 uM incubated for 2 hrs by LC-MS/MS analysis
in vivo [50] = settings: male, CD-1(ICR), mouse, iv, 1 mg/kg; remark: listed apart in the source
Description: Apparent volume of distribution in male CD-1(ICR) mouse at 1 mg/kg, iv measured after 1440 mins by LC-MS/MS analysis

[51] = Metabolic stability in dog hepatocytes assessed as hepatic extraction ratio at 2 uM measured up to 120 mins by LC-MS/MS analysis
[52] = Toxicity in female BALB/C mouse model implanted with mouse CT26 cells assessed as effect on body weight at 30 mg/kg, po administered via gavage once daily and measured after 14 days; settings: in vivo, 336 h
CT26 = test: Antitumor activity against mouse CT26 cells implanted in female BALB/C mouse model assessed as tumor growth inhibition at 50 mg/kg, po administered via gavage once daily and measured after 14 days relative to control; settings: 336 h, read-out: TGI

Chain of E3 ubiquitin-protein ligase CBL-B (Q13191 whole entry): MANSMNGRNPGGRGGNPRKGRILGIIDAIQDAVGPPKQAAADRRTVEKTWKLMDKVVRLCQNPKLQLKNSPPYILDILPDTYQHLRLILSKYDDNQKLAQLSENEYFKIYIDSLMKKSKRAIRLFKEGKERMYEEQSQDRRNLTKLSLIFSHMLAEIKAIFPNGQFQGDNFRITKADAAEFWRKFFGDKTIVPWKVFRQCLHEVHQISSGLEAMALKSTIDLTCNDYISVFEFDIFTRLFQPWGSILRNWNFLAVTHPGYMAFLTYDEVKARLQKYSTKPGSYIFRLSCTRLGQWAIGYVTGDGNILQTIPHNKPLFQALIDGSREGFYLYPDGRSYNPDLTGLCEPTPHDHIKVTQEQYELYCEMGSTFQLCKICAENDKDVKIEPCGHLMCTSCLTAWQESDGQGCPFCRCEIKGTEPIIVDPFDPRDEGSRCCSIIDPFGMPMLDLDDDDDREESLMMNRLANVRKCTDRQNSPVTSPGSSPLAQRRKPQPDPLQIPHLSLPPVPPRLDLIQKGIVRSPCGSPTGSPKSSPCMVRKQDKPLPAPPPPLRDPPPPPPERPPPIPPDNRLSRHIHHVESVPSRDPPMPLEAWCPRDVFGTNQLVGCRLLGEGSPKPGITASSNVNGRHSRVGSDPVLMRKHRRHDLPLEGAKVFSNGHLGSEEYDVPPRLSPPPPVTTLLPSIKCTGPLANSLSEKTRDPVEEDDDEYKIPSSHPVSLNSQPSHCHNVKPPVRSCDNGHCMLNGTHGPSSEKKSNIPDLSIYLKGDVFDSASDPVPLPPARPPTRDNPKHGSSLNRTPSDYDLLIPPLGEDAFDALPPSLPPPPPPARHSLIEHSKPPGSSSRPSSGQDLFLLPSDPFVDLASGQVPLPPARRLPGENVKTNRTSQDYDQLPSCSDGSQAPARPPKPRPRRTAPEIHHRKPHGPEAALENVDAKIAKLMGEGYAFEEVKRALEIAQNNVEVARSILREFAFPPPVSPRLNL

Molecule `C[C@H]1CCCN(Cc2cc3c(c(C(F)(F)F)c2)CN(c2cccc([C@]4(c5nncn5C)C[C@@H](C)C4)c2)C3=O)C1` has a CLint scaled at 2 h, 2 µM (in vitro [1]) of 50.8 mL/min/kg, a fraction unbound at 5 h, 5 µM [2] of 0.0522 and a Tmax at 24 h (in vivo [3]) of 0.33 h. For the same molecule, the fraction unbound at 5 h, 5 µM [4] was 0.078, the hepatic extraction ratio at 2 h, 2 µM [5] was 0.8 and the clearance at 24 h (in vivo [6]) was 59.7 mL/min/kg. For the same molecule, the bioavailability at 24 h (in vivo [7]) was 24.6%, the “%AUCextra” value [8] was 4.76% and the fraction unbound at 5 h, 5 µM [9] was 0.0434. It also gave a CLH [10] of 14.3 mL/min/kg, a fraction unbound at 5 h, 5 µM [11] of 0.0736 and a Papp B→A at 2 h, 2 µM [12] of 35.8 ×10⁻⁶ cm/s. The EC50 [13] was 894 nM, the hepatic extraction ratio at 2 h, 2 µM [14] was 0.7 and the Papp A→B at 2 h, 2 µM [15] was 1.98 ×10⁻⁶ cm/s. It also gave a CLH [16] of 25.2 mL/min/kg, a CLH [17] of 37.5 mL/min/kg and a half-life at 2 h, 2 µM (in vitro [18]) of 39.3 min. It also gave a half-life at 2 h, 2 µM (in vitro [19]) of 46 min, a fraction unbound at 5 h, 5 µM [20] of 0.044 and a fraction unbound at 5 h, 5 µM [21] of 0.0736. For the same molecule, the AUC(0-inf) at 24 h (in vivo [22]) was 281 ng·h/mL, the hepatic extraction ratio at 2 h, 2 µM [23] was 0.9 and the fraction unbound at 5 h, 5 µM [24] was 0.0522. It also gave a half-life at 2 h, 2 µM (in vitro [25]) of 5.2 min, a fraction unbound at 5 h, 5 µM [26] of 0.078 and a C0 at 24 h (in vivo [27]) of 572 ng/mL. It also gave an AUC(0-t) at 24 h (in vivo [28]) of 277 ng·h/mL, an MRT inf at 24 h (in vivo [29]) of 26.4 min and a fraction unbound at 5 h, 5 µM [30] of 0.044. The Cmax at 24 h (in vivo [31]) was 629 ng/mL, the MRT inf at 24 h (in vivo [32]) was 1.72 h and the “%AUCextra” value [33] was 1.18%. For the same molecule, the EC50 [34] was 892 nM, the Vd at 24 h (in vivo [35]) was 1.55 L/kg and the fraction unbound at 5 h, 5 µM [36] was 0.0434. The AUC(0-t) at 24 h (in vivo [37]) was 661 ng·h/mL, the CLH [38] was 79.8 mL/min/kg and the efflux ratio at 2 h, 2 µM (in vitro [39]) was 18. The half-life at 24 h (in vivo [40]) was 18.6 min, the Ki [41] was 1.84 nM and the half-life at 2 h, 2 µM (in vitro [42]) was 9.3 min. It also gave a half-life at 2 h, 2 µM (in vitro [43]) of 10.4 min, a half-life at 24 h (in vivo [44]) of 161 min and a recovery at 2 h, 2 µM [45] of 101%. It also gave a hepatic extraction ratio at 2 h, 2 µM [46] of 0.9, an AUC(0-inf) at 24 h (in vivo [47]) of 690 ng·h/mL and an EC50 [48] of 26.8 nM. For the same molecule, the recovery at 2 h, 2 µM [49] was 81.3%, the Vd at 24 h (in vivo [50]) was 1.62 L/kg and the hepatic extraction ratio at 2 h, 2 µM [51] was 0.9. For the same molecule, the Activity [52] was “Non-toxic”.
Molecule `C[C@H]1CCCN(Cc2cc3c(C4CC4)cn(-c4cccc([C@]5(c6nncn6C)C[C@@H](C)C5)c4)c(=O)c3[nH]2)C1` has a Tmax at 24 h (in vivo [3]) of 2 h, an inhibition in vivo at 50 mg/kg (CT26) of 51% and a clearance at 24 h (in vivo [6]) of 82.1 mL/min/kg. The bioavailability at 24 h (in vivo [7]) was 27.2%, the “%AUCextra” value [8] was 14.2% and the AUC(0-inf) at 24 h (in vivo [22]) was 205 ng·h/mL. The C0 at 24 h (in vivo [27]) was 395 ng/mL, the AUC(0-t) at 24 h (in vivo [28]) was 202 ng·h/mL and the MRT inf at 24 h (in vivo [29]) was 39.6 min. For the same molecule, the Cmax at 24 h (in vivo [31]) was 77.9 ng/mL, the MRT inf at 24 h (in vivo [32]) was 4.22 h and the “%AUCextra” value [33] was 1.18%. For the same molecule, the Vd at 24 h (in vivo [35]) was 3.19 L/kg, the AUC(0-t) at 24 h (in vivo [37]) was 243 ng·h/mL and the half-life at 24 h (in vivo [40]) was 40.8 min. The half-life at 24 h (in vivo [44]) was 140 min, the AUC(0-inf) at 24 h (in vivo [47]) was 293 ng·h/mL and the Vd at 24 h (in vivo [50]) was 4.82 L/kg.
